Entries after “also recorded” stand apart in the source; their conditions may differ.
What was measured:
[1] = test system: Sitophilus zeamais weevils; test: Weevil survival monitoring; assay type: in vivo; conditions: adult S. zeamais mating pairs; 250 μg/ml or 2.5 mg/ml ciprofloxacin; 18 days
[2] = test system: Sitophilus zeamais weevils; test: Assessment of offspring: dissection of corn kernels (F1 weevil development); assay type: in vivo; conditions: after 25 days
[3] = test system: Escherichia coli DH5α; conditions: kernels soaked in 2.5 or 0.25 mg/ml ciprofloxacin; overnight
Protocol: The kernels were soaked for 1.5 hours as described herein. After soaking, kernels were air dried and assayed to determine whether the antibiotic was able to coat and penetrate the kernel. To test this, a concentrated sample of Escherichia coli DH5α in water was spread onto 5 Luria Broth (LB) plates. […] The plates were incubated overnight at 37 degrees C. and bacterial growth and/or zone(s) of inhibition were assessed the next day.
A concentrated culture of E. coli was then spread onto LB plates and one of the coated kernels was then placed onto the center of the plate. The plates were incubated overnight, and bacterial growth was assessed the next day.
The plates were incubated overnight and the next day bacterial growth was assessed.

[4] = test system: Sitophilus zeamais weevils; test: Emergence of F1 weevils (fecundity); conditions: 2.5 mg/ml ciprofloxacin; till day 43
[5] = test system: Acyrthosiphon pisum aphids; test: Aphid survival monitoring; assay type: in vivo
From the text: For each treatment, 33 aphids were placed onto each leaf. Artificial diet feeding systems were changed every 2-3 days throughout the experiment. Aphids were monitored daily for survival and dead aphids were removed from the deep petri dish housing the artificial feeding system when they were discovered.
(§1) Each treatment group received approximately the same number of individuals from each of the collection plant. For each treatment, 20 aphids were placed onto each leaf. Aphids were monitored daily for survival and dead aphids were removed when they were discovered. In addition, the developmental stage (1st, 2nd, 3rd, 4th, 5th instar, and 5R, representing a reproducing 5th instar) was determined daily throughout the experiment. Pictures of aphids were taken throughout the experiment to evaluate size differences between treatment groups.
(Vroma vicia faba from Johnny's Selected Seeds) in a climate-controlled incubator (16 h light/8 h dark photoperiod; 60±5% RH; 25±2° C.). Prior to being used for aphid rearing, fava bean plants were grown in potting soil at 24° C. with 16 h of light and 8 h of darkness. To limit maternal effects or health differences between plants, 5-10 adults from different plants were distributed among 10 two-week-old plants, and allowed to multiply to high density for 5-7 days. For experiments, first and second instar aphids were collected from healthy plants and divided into 2 different treatment groups: 1) negative control (leaf injected with water plus blue food coloring) and 2) leaf injected with 50 μg/ml rifampicin in water plus blue food coloring. Each treatment group received approximately the same number of individuals from each of the collection plants. For treatment, rifampicin stock solution (25 mg/ml in 100% methanol) was diluted to 50 μg/ml in water plus blue food coloring. The solution was then placed into a 1.5 ml Eppendorf tube with a fava bean stem perfused with the solutions and the opening of the tube was closed using parafilm. This feeding system was then placed into a deep petri dish (Fisher Scientific, Cat# FB0875711) and aphids were applied to the leaves of the plant. For each treatment, 74-81 aphids were placed onto each leaf. The feeding systems were changed every 2-3 days throughout the experiment. Aphids were monitored daily for survival and dead aphids were removed from the deep petri dish when they were discovered. In addition, the developmental stage (1st, 2nd, 3rd, 4th, 5th and 5R (5th that has reproduced) instar) was determined daily throughout the experiment.
For each treatment, 49-50 aphids were placed onto each leaf. The feeding systems were changed every 2-3 days throughout the experiment. Aphids were monitored daily for survival and dead aphids were removed from the deep petri dish when they were discovered.
For each treatment, 76-80 aphids were placed onto each leaf. The feeding systems were changed every 2-3 days throughout the experiment. Aphids were monitored daily for survival and dead aphids were removed from the deep petri dish when they were discovered.
For each treatment, 50-51 aphids were placed onto each leaf. The feeding systems were changed every 2-3 days throughout the experiment. Aphids were monitored daily for survival and dead aphids were removed from the deep petri dish when they were discovered.
For each treatment, 56-59 aphids were placed onto each leaf. The feeding systems were changed every 2-3 days throughout the experiment. Aphids were monitored daily for survival and dead aphids were removed from the deep petri dish when they were discovered.
For each treatment, 57-59 aphids were placed onto each leaf. The feeding systems were changed every 2-3 days throughout the experiment. Aphids were monitored daily for survival and dead aphids were removed from the deep petri dish when they were discovered.
For each treatment, 15-87 aphids were placed onto each leaf. Artificial diet feeding systems were changed every 2-3 days throughout the experiment.

[6] = test system: Buchnera; test: qPCR of Buchnera/aphid DNA copy numbers (symbiont titer); assay type: in vivo, Buchnera aphidicola
Protocol: (§2) After 7 days of treatment, DNA was extracted from multiple aphids from each treatment group. Briefly, the aphid body surface was sterilized by dipping the aphid into a 6% bleach solution for approximately 5 seconds. Aphids were then rinsed in sterile water and DNA was extracted from each individual aphid using a DNA extraction kit (Qiagen, DNeasy kit) according to manufacturer's instructions. DNA concentration was measured using a nanodrop nucleic acid quantification, and Buchnera and aphid DNA copy numbers were measured by qPCR.
After 6 days of treatment, DNA was extracted from multiple aphids from each treatment group and qPCR for quantifying Buchnera levels was done as described in the previous Example.
as §2, with “8” for “7”
as §2, with “After 8” for “After 7”, “from the remaining” for “from multiple”, “aphids in” for “aphids from”
as §2, with “Briefly,” for “After 7 days of treatment, DNA was extracted from multiple aphids from each treatment group. Briefly,”
as §2, with “Briefly,” for “After 7 days of treatment, DNA was extracted from multiple aphids from each treatment group. Briefly,”
as §2, with “3” for “7”, “the remaining living” for “multiple”
as §2, with “After 5” for “After 7”, “from the remaining” for “from multiple”, “aphids in” for “aphids from”
At 5 days post-treatment, DNA was extracted from several aphids in each treatment group. Briefly, the aphid body surface was sterilized by dipping the aphid into a 6% bleach solution for approximately 5 seconds.

[7] = test system: Acyrthosiphon pisum aphids; test: Aphid developmental stage monitoring; assay type: in vivo
Protocol: (§3) In addition, the developmental stage (1st, 2nd, 3rd, 4th, 5th instar) was determined daily throughout the experiment. Once an aphid reached the 4th instar stage, they were given their own artificial feeding system in a deep petri dish so that fecundity could be monitored once they reached adulthood.
as §1
(Vroma vicia faba from Johnny's Selected Seeds) in a climate-controlled incubator (16 h light/8 h dark photoperiod; 60±5% RH; 25±2° C.). Prior to being used for aphid rearing, fava bean plants were grown in potting soil at 24° C. with 16 h of light and 8 h of darkness. To limit maternal effects or health differences between plants, 5-10 adults from different plants were distributed among 10 two-week-old plants, and allowed to multiply to high density for 5-7 days. […] Aphids were monitored daily for survival and dead aphids were removed from the deep petri dish when they were discovered. In addition, the developmental stage (1st, 2nd, 3rd, 4th, 5th and 5R (5th that has reproduced) instar) was determined daily throughout the experiment.
In addition, the developmental stage (1st, 2nd, 3rd, 4th, 5th, and 5R (5th that has reproduced) instar) was determined daily throughout the experiment.
In addition, the developmental stage (1st, 2nd, 3rd, 4th, 5th, and 5R (5th instar aphids that are reproducing) instar) was determined daily throughout the experiment.
In addition, the developmental stage (1st, 2nd, 3rd, 4th, and 5th instar) was determined daily throughout the experiment.
as §3, with “5th, and 5R (5th that has reproduced)” for “5th”
For each treatment, 30 aphids were placed onto each leaf in triplicate. […] Aphids were monitored daily for survival and dead aphids were removed from the deep petri dish when they were discovered. In addition, the developmental stage (1st, 2nd, 3rd, 4th, 5th, and 5R (5th instar aphids that are reproducing) instar) was determined daily throughout the experiment. […]

[8] = synthetic cationic NCR peptides; cited from earlier work
[9] = test system: gram-negative and gram-positive bacteria as well as fungi; conditions: cited from earlier work

Molecule: O=C(O)c1cn(C2CC2)c2cc(N3CCNCC3)c(F)cc2c1=O [ciprofloxacin]
- Weevil survival [1]: all weevils remained alive for the course of the experiment
- Number of offspring found in dissected corn kernels ([2]; 250 ug/ml ciprofloxacin): 13
- Offspring in the larval form ([2]; 250 ug/ml ciprofloxacin): 38%
- Number of offspring found in dissected corn kernels ([2]; 2.5 mg/ml ciprofloxacin): 20
- Offspring in the larval form ([2]; 2.5 mg/ml ciprofloxacin): 65%
- E. coli growth on plates with entire soaked corn kernels [3]: no bacteria grew
- F1 offspring emerged [4]: much less offspring that emerged

Molecule: Cc1cc2c(C(C)C)c(O)c(O)c(C=O)c2c(O)c1-c1c(C)cc2c(C(C)C)c(O)c(O)c(C=O)c2c1O [gossypol, gossypol acetic acid]
- Time by which all aphids succumbed to treatment ([5]; 0.5% gossypol): ≤ 4 days
- Time of treatment after which aphids began dying ([5]; 0.5% gossypol): 2 days
- Fold less Buchnera/aphid DNA copies vs control ([6]; 0.25 and 0.5% of gossypol, through plants, 5 or 13 days): ~4 fold

Molecule: CC(=O)CCC(=O)O [levulinic acid]
- Aphid development ([7]; 0.03 or 0.3% levulinic acid): delayed aphid development
- Aphid mortality ([5]; 0.03% levulinic acid, 11-day experiment): higher mortality compared to control treated aphids, although the difference did not reach statistical significance
- Insect survival ([5]; 0.03 or 0.3% levulinic acid): decrease in insect survival
- Aphid survival ([5]; 0.3% levulinic acid, 11-day experiment): survival was significantly less
- Fold less Buchnera/aphid DNA copies vs control ([6]; 0.03 or 0.3% levulinic acid in water, 7 days of treatment): ~6 fold
- Buchnera/aphid ratio ([6]; 0.03 or 0.3% levulinic acid, seven and eleven days post-treatment): reduced endosymbiotic Buchnera

Molecule: O=C/C=C/c1ccccc1 [trans-cinnemaldehyde]
- Aphid developmental stage ([7]; LSR-1 1st and 2nd instar, 0.05%, 0.5%, 5% trans-cinnemaldehyde in water, leaf perfusion and through plants, by 3 days): delayed aphid development; also recorded: none of the aphids matured past the second instar stage
- Aphid survival rate ([5]; 0.05%, 0.5%, and 5% trans-cinnemaldehyde): dose-dependent decrease in survival; also recorded: significantly lower
- Symbiont titer (Buchnera DNA to aphid DNA) ([6]; 0.05%, 0.5%, and 5% trans-cinnemaldehyde, 3 days post-treatment): reduced endosymbiotic Buchnera
- Fold less Buchnera/aphid DNA copies vs control ([6]; 0.5 and 5% of trans-cinnemaldehyde, 3 days): ~870 fold
- Buchnera/aphid DNA copies ([6]; lowest concentration of trans-cinnemaldehyde (0.5%), 3 days): high ratios of Buchnera/aphid DNA copies

Molecule: NCR335: cationic nodule C-rich peptide (RQMIILRLNTTFRPLNFKMLRFWGQ)
- pl [8]: 11.22
- Antimicrobial activity [9]: effective against gram-negative and gram-positive bacteria as well as fungi

— patent publication US20190387748A1, “COMPOSITIONS AND RELATED METHODS FOR AGRICULTURE” (priority 2017, published 2019)
